What was measured:
Human recombinant PDE4B2 = target: T1, Human recombinant PDE4B2 (Homo sapiens, UniProt Q07343); test: Inhibition of PDE4B2 enzyme activity (PDE Glo Assay); format: biochemical; settings: human recombinant PDE4B2, 50 nM cAMP; read-out: PDE4 IC50
T1 construct: purchased BPS Bioscience
Description: Inhibition of PDE4B4 Enzyme Activity
The inhibitory activity of test compounds were determined using the PDE Glo Assay (Promega, V1361). The PDE-Glo Reaction Buffer was prepared (1 mL 5× buffer+4 mL water) and 150 nM solution of test compound dissolved in the Reaction Buffer, followed by 1:3 serial dilutions into Reaction Buffer. […] Human recombinant PDE4B2 (BPS Bioscience) was added to test compound in Reaction Buffer at a concentration of 0.12 nM per reaction. The enzyme and test compound were pre-incubated together at rt for 10 min. 50 nM of the enzyme substrate cAMP was then added to initiate the enzyme reaction, with the reaction terminated after one hour. Termination Buffer (1 mL 5× termination buffer+3.9 mL water+100 μL of 100 mM IBMX (ICN Chemicals, in DMSO)), was added to each reaction well to terminate the reaction. Detection Buffer (1 mL 5×PDE-Glo Detection buffer+3.96 mL water+40 μL PKA (supplied in kit)) was added to the cAMP-enzyme-test compound mix and this secondary reaction proceeded for 20 minutes at rt. An equal volume of Kinase Glo Reagent was then added to the reaction mixture and after 10 min luminescence was measured using a luminometer (EnVision, 0.1 sec read for luminescence). Luminescence values were […] related to levels of cAMP in the reaction mixture. Data were plotted as relative light units (RLU) versus test compound concentration and the IC50 determined using GraphPad Prism 5.0, using a nonlinear curve fit in a single-site binding model.
IC50 determinations for the compounds presented above are seen in the first column of Table 1 (PDE4 IC50).

[1] = target: T2, human recombinant beta-2 adrenoreceptors (Homo sapiens, UniProt P07550); test: Beta-2 adrenoceptor binding assay, displacement of [3H](−)CGP-12177; settings: CHO cells expressing human beta-2 adrenoreceptors, [3H](−)CGP-12177 0.3 nM, 120 min
T2 construct: expressed in transfected cells; host or cells: CHO cells
T2 sequence (P07550 whole entry): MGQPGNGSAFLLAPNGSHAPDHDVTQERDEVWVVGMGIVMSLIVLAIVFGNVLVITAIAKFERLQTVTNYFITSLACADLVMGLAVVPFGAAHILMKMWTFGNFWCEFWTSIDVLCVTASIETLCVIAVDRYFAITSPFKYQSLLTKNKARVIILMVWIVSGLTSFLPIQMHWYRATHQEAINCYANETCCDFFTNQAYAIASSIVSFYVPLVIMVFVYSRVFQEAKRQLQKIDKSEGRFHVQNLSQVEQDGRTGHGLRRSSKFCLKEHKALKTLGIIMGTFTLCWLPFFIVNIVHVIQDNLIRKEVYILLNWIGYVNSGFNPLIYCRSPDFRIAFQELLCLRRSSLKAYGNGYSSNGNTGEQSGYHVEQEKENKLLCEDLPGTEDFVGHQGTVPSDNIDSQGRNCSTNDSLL
Description: Beta-2 Adrenoceptor Binding Assay
Test compounds were incubated for 120 min with Chinese hamster oocyte (CHO) cells expressing the human recombinant beta-2 adrenoreceptors. Binding of test compounds to the beta-2 adrenoreceptors was determined by measuring the displacement of the radiolabeled ligand [^3H](−)CGP-12177 (0.3 nM) from the receptor measured by a scintillation counting. Concentration response curves were generated for test compounds and the IC50 (molar concentration of the compound which produced 50% inhibition for the maximal response for that compound) was determined. These assays were performed using a protocol based on the original description of the assay by Joseph et al., (2004) Naun.-Sch. Arch. Pharm.; 369:525-532.
IC50 determinations for the compounds presented above are seen in the second column of Table 1 (Beta 2 IC50).

[2] = target: T2, human recombinant beta-2 adrenoreceptors; test: Functional agonism of human recombinant beta-2 adrenoreceptors expressed in CHO cells (cAMP, HTRF); format: cell-based; settings: cAMP elevation, 30 min
Description: Functional Agonism of Human Recombinant Beta-2 Adrenoreceptors Expressed in Chinese Hamster Oocytes (CHO)
Test compounds were incubated for 30 min with CHO cells expressing the human recombinant beta-2 adrenoreceptors. Agonism of the receptor was measured by the elevation of intracellular cyclic-AMP over control levels detected using a homogeneous time resolved fluorescence (HTRF) format. Compounds were determined to be “full” or “partial” agonists based on the maximum level of cAMP accumulated compared to the control compound isoproterenol which is a full agonist in this assay system. Concentration response curves were generated for test compounds and the EC50 (molar concentration of the agonist which produced 50% of the maximal response for that compound) was determined. These assays were performed using a protocol based on the original description of the assay by Baker, J. G. (2005) Brit. J. Pharmacol.; 144:317-322.
EC50 determinations for the compounds presented above are seen in the third column of Table 1 (Beta 2 EC50).

[3] = tested on: LPS-induced TNF-α release from human peripheral blood mononuclear cells (PBMC); test: Inhibition of LPS-induced TNF-α release from human PBMC; format: cell-based; settings: LPS 0.4 ng/mL, 6 h, presence or absence of ICI-118551 not given
Text: Inhibition of Lipopolysaccharide (LPS)-Induced Tumour Necrosis Factor Alpha (TNF-α) Release from Human Peripheral Blood Mononuclear Cells (PBMC)
Human whole blood was drawn from donors and cell purification initiated within two hours. Peripheral blood mononuclear cells (PBMC) were purified using a standard Ficoll gradient purification technique and aliquoted at a concentration of 100,000 cells/well in 96 well plates. Beta-2 adrenoreceptor agonists are also anti-inflammatory for some immune cells expressing the receptor and in this assay they can inhibit tumor necrosis factor-alpha (TNF-α) production. Therefore PBMC were pre-incubated for 30 min in the presence of the beta-2 adrenoreceptor antagonist ICI-118551 (3-(isopropylamino)-1-[(7-methyl-4-indanyl)oxy]butan-2-ol) (10 μM) to determine the PDE4 directed activity of test compounds, and in the absence of ICI-118551 for the combined PDE4 and beta-2 receptor directed activity. Test compounds were dissolved in DMSO and diluted in buffer (final DMSO concentration of 0.1% v/v) and were then added to the cell suspensions and pre-incubated for a further 1 h at 37° C. LPS solution was then added (0.4 ng/mL) and the cells incubated for a further 6 h. At the end of the incubation period the cell supernatants were collected and TNF-α was measured using a Procarta Cytokine Assay Kit (Affymetrix, Santa Clara, Calif.) according to the manufacturers' instructions. Data were analyzed using MiraiBio Masterplex QT v4.0 software (MasterPlex Version 1.0.1.18 Copyright 2008, Hitachi Software Engineering Co., Ltd) and used to extrapolate Mean Fluorescence Intensity (MFI) into concentrations of TNF-α and mean values from replicate wells were determined. Inhibition curves were plotted using a nonlinear curve fit employing a single-site binding model to determine the IC50 value for each test compound in the presence or absence of ICI-118551 using GraphPad Prism 5 for Windows, version 5.02 (GraphPad Software, San Diego Calif.).
EC50 determinations for the compounds presented above are seen in the fourth column of Table 1 (PBMC TNF EC50).

T1 sequence (Q07343 1-564 isoform Q07343-2): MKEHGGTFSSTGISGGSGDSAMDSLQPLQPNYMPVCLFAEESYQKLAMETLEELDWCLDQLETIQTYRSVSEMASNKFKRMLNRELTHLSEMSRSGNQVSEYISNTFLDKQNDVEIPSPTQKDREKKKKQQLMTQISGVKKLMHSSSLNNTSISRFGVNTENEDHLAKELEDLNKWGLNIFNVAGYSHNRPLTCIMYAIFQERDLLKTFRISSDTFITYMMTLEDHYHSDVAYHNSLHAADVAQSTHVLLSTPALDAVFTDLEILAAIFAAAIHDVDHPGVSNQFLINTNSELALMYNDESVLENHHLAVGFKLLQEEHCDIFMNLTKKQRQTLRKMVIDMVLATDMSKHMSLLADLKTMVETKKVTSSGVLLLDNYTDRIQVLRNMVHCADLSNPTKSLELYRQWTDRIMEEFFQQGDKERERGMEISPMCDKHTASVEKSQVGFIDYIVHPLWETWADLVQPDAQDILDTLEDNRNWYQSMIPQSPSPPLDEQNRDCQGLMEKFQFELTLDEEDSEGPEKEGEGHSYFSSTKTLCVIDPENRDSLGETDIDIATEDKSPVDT

SMILES | IC50 (Human recombinant PDE4B2) | IC50 [1] | EC50 [2] | EC50 [3]
CCc1nc2c(cnn2CC)c(NC2CCOCC2)c1CNC(=O)c1ccc(CNC[C@H](O)c2ccc(O)c3[nH]c(=O)ccc23)cc1 [Example 6, (R)—N-[[1,6-diethyl-4-[(tetrahydro-2H-pyran-4-yl)amino]-1H-pyrazolo[3,4-b]pyridin-5-yl]methyl]-4-[[[2-hydroxy-2-(8-hydroxy-2-oxo-1,2-dihydroquinolin-5-yl]ethyl]amino]methyl]benzamide] | < 100 nM | > 300 nM | < 100 nM | < 100 nM
CCc1nc2c(cnn2CC)c(NC2CCOCC2)c1CNC(=O)c1cccc(CC(C)(C)NC[C@H](O)c2ccc(O)c(CO)c2)c1 [Example 3, (R)—N-[[1,6-Diethyl-4-[(tetrahydro-2H-pyran-4-yl)amino]-1H-pyrazolo[3,4-b]pyridin-5-yl]methyl]-3-[2-[[2-hydroxy-2-[4-hydroxy-3-(hydroxymethyl)phenyl]ethyl]amino]-2-methylpropyl]benzamide] | < 100 nM | < 300 nM | < 300 nM | < 100 nM
CCc1nc2c(cnn2CC)c(NC2CCOCC2)c1CNC(=O)c1cccc(CNC[C@H](O)c2ccc(O)c3[nH]c(=O)ccc23)c1 [Example 5, (R)—N-[[1,6-Diethyl-4-[(tetrahydro-2H-pyran-4-yl)amino]-1H-pyrazolo[3,4-b]pyridin-5-yl]methyl]-3-[[[2-hydroxy-2-(8-hydroxy-2-oxo-1,2-dihydroquinolin-5-yl)ethyl]amino]methyl]benzamide] | < 100 nM | < 300 nM | < 100 nM | < 100 nM
CCc1nc2c(cnn2CC)c(NC2CCOCC2)c1CNC(=O)c1ccc(CNC[C@H](O)c2ccc(O)c(CO)c2)cc1 [Example 8, (R)—N-[[1,6-diethyl-4-[(tetrahydro-2H-pyran-4-yl)amino]-1H-pyrazolo[3,4-b]pyridin-5-yl]methyl]-4-[[[2-hydroxy-2-[4-hydroxy-3-(hydroxymethyl)phenyl]ethyl]amino]methyl]benzamide] | < 100 nM | > 300 nM | > 300 nM | < 300 nM
CCc1nc2c(cnn2CC)c(NC2CCOCC2)c1CNC(=O)c1cccc(CC(C)NC[C@H](O)c2ccc(O)c(CO)c2)c1 (stereo partly drawn) [Example 2, N-[[1,6-Diethyl-4-[(tetrahydro-2H-pyran-4-yl)amino]-1H-pyrazolo[3,4-b]pyridin-5-yl]methyl]-3-[2-[[(R)-2-hydroxy-2-[4-hydroxy-3-(hydroxymethyl)phenyl]ethyl]amino]propyl]benzamide] | < 100 nM | > 300 nM | < 100 nM | < 100 nM
CCc1nc2c(cnn2CC)c(NC2CCOCC2)c1CNC(=O)CCCCCCCNC[C@H](O)c1ccc(O)c2[nH]c(=O)ccc12 [Example 10, (R)—N-[[1,6-Diethyl-4-[(tetrahydro-2H-pyran-4-yl)amino]-1H-pyrazolo[3,4-b]pyridin-5-yl]methyl]-8-[[2-hydroxy-2-(8-hydroxy-2-oxo-1,2-dihydroquinolin-5-yl)ethyl]amino]octanamide] | < 100 nM | > 300 nM | < 100 nM | < 100 nM
CCc1nc2c(cnn2CC)c(NC2CCOCC2)c1CNc1c(Nc2ccc(CCCCCNC[C@H](O)c3ccc(O)c4[nH]c(=O)ccc34)cc2)c(=O)c1=O [Example 13, (R)-3-(((1,6-diethyl-4-((tetrahydro-2H-pyran-4-yl)amino)-1H-pyrazolo[3,4-b]pyridin-5-yl)methyl)amino)-4-((4-(5-((2-hydroxy-2-(8-hydroxy-2-oxo-1,2-dihydroquinolin-5-yl)ethyl)amino)pentyl)phenyl)amino)cyclobut-3-ene-1,2-dione] |  | < 100 nM | < 100 nM | < 100 nM

The next lines start with results.

IC50 (Human recombinant PDE4B2) | IC50 [1] | EC50 [2] | SMILES | EC50 [3]
< 100 nM | < 100 nM | < 100 nM | CCc1nc2c(cnn2CC)c(NC2CCOCC2)c1CNC(=O)Nc1ccc(CCCCCNC[C@H](O)c2ccc(O)c3[nH]c(=O)ccc23)cc1 [Example 12, (R)-1-((1,6-diethyl-4-((tetrahydro-2H-pyran-4-yl)amino)-1H-pyrazolo[3,4-b]pyridin-5-yl)methyl)-3-(4-(5-((2-hydroxy-2-(8-hydroxy-2-oxo-1,2-dihydroquinolin-5-yl)ethyl)amino)pentyl)phenyl)urea] | < 100 nM
< 100 nM | < 100 nM | < 100 nM | CCc1nc2c(cnn2CC)c(NC2CCOCC2)c1CNC(=O)c1cccc(CC(C)NC[C@H](O)c2ccc(O)c3[nH]c(=O)ccc23)c1 (stereo partly drawn) [Example 1, N-[[1,6-Diethyl-4-[(tetrahydro-2H-pyran-4-yl)amino]-1H-pyrazolo[3,4-b]pyridin-5-yl]methyl]-3-[2-[[(R)-2-hydroxy-2-(8-hydroxy-2-oxo-1,2-dihydroquinolin-5-yl)ethyl]amino]propyl]benzamide] | < 100 nM
< 100 nM | < 100 nM | < 100 nM | CCc1nc2c(cnn2CC)c(NC2CCOCC2)c1CNC(=O)Nc1ccc(C#CCCCNC[C@H](O)c2ccc(O)c3[nH]c(=O)ccc23)cc1 [Example 11] | < 100 nM
 | < 100 nM | < 100 nM | CCc1nc2c(cnn2CC)c(NC2CCOCC2)c1CNC(=O)Nc1ccc(CCCCOCCCCCCNC[C@H](O)c2ccc(O)c3[nH]c(=O)ccc23)cc1 [Example 14, (R)-1-((1,6-diethyl-4-((tetrahydro-2H-pyran-4-yl)amino)-1H-pyrazolo[3,4-b]pyridin-5-yl)methyl)-3-(4-(4-((6-((2-hydroxy-2-(8-hydroxy-2-oxo-1,2-dihydroquinolin-5-yl)ethyl)amino)hexyl)oxy)butyl)phenyl)urea] | < 100 nM
< 100 nM | < 100 nM | < 100 nM | CCc1nc2c(cnn2CC)c(NC2CCOCC2)c1CNC(=O)c1cccc(CC(C)(C)NC[C@H](O)c2ccc(O)c3[nH]c(=O)ccc23)c1 [Example 4, (R)—N-[[1,6-Diethyl-4-[(tetrahydro-2H-pyran-4-yl)amino]-1H-pyrazolo[3,4-b]pyridin-5-yl]methyl]-3-[2-[[2-hydroxy-2-(8-hydroxy-2-oxo-1,2-dihydroquinolin-5-yl)ethyl]-amino]-2-methylpropyl]benzamide] | < 100 nM
 | < 100 nM | < 100 nM | CCc1nc2c(cnn2CC)c(NC2CCOCC2)c1CNC(=O)Nc1ccc(C#CCCCNC[C@H](O)c2ccc(O)c3c2OCC(=O)N3)cc1 [Example 15] | < 100 nM

— patent US8367829B2, “Bi-functional pyrazolopyridine compounds” (Gilead Sciences, Inc., priority 2010, dated 2013)
